According to US20220280584A1, “CROTON LECHLERI COMPOSITIONS FOR USE IN TREATING BLEEDING, WOUNDS AND INFECTIONS” (priority 2019, published 2022):
In brackets after ≈: the same amount, converted by molar mass.

Columns and labels:
[1] = tested on: MSSA and MRSA (Staphylococcus aureus); experiment: MIC, in vitro assay of MSSA and MRSA (2-fold microdilution); type: cell-based; details: for MIC: Staphylococcus aureus
the cells = details: Chen, Planta Med. 60 (1994), cited from earlier work; for Effect on cell proliferation: compounds obtained through extraction; for Wound healing properties / healing effects: Ecuadorian sap
[2] = tested on: MSSA and MRSA (Staphylococcus aureus); experiment: MBC, in vitro assay of MSSA and MRSA; type: cell-based
S. pyogenes = experiment: MIC against S. pyogenes (Erythromycin and Tetracycline resistant strains); type: cell-based; details: Streptococcus pyogenes, antibiotic screening
Experimental: Tables 14 and 15 show an assay whose setup is same as what was used for screening S. aureus and P. aeruginosa (i.e. 2-fold microdilution). The 20 strains of S. pyogenes assayed were selected from the two rounds of antibiotic screening to identify Erythromycin and Tetracycline resistant strains. […] For this feasibility study, AB-101 Lot 1 and Lot 2 was used. P. aeruginosa ATCC 27853 was tested as a positive control for AB-101 activity.

`C/C(=C\C(=O)OCCCCCCCCC(=O)O)C[C@@H]1OC[C@H](C[C@@H]2O[C@H]2[C@@H](C)[C@H](C)O)[C@@H](O)[C@H]1O` [Mupirocin] gave an MIC ([1]; strain 1674606, MupirocinR, MSSA) greater than 256 µg/mL, an MIC ([1]; strain 1674607, MupirocinR, MRSA) greater than 256 µg/mL and an MIC ([1]; strain CDC 227, MupirocinS, MRSA) of 0.25 to 0.5 µg/mL (≈ 0.499 to 0.999 µM). It also gave an MIC ([1]; strain CDC 462, MupirocinS, MSSA) of no more than 0.25 µg/mL, an MIC ([1]; strain CDC 464, MupirocinS, MSSA) of no more than 0.25 µg/mL and an MIC ([1]; strain CDC 484, MupirocinS, MSSA) of no more than 0.25 µg/mL. It also gave an MIC ([1]; strain CDC 485, MupirocinS, MSSA) of no more than 0.25 µg/mL.

For `Oc1cc(O)c2c(c1)O[C@H](c1cc(O)c(O)c(O)c1)[C@@H](O)C2` [Gallocatechin], the “Effect on cell proliferation” value (the cells) is listed as “slightly stimulating”.

For Catechin, the “Effect on cell proliferation” value (the cells) is listed as “little effect”.

In the case of `COc1ccc2c(=O)oc3c(OC)cc(CCN(C)C)c4c(=O)oc1c2c34` [Taspine], the “Activity against MSSA and MRSA (MBC)” value ([2]; purified extract of taspine) was “does not have activity”, the “MBC (% relative to amount in AB-101)” value ([2]; strain ATCC 29213, QC control) was >50 % relative to amount in AB-101 and the “Activity against MSSA and MRSA (MIC)” value ([1]; purified extract of taspine, highest concentration tested 50% relative to AB-101 = 10 μg/mL) was “does not have activity”. For the same compound, the “MIC (% relative to amount in AB-101)” value ([1]; strain ATCC 29213, QC control, 50% = 10 μg/mL taspine) was >50 % relative to amount in AB-101 and the “Wound healing properties / healing effects” value (the cells) was “little healing effects”.

In the case of `CN[C@H](CC(C)C)C(=O)N[C@H]1C(=O)N[C@@H](CC(N)=O)C(=O)N[C@H]2C(=O)N[C@H]3C(=O)N[C@H](C(=O)N[C@H](C(=O)O)c4cc(O)cc(O)c4-c4cc3ccc4O)[C@H](O)c3ccc(c(Cl)c3)Oc3cc2cc(c3O[C@@H]2O[C@H](CO)[C@@H](O)[C@H](O)[C@H]2O[C@H]2C[C@](C)(N)[C@H](O)[C@H](C)O2)Oc2ccc(cc2Cl)[C@H]1O` [Vancomycin], the MIC (S. pyogenes; S. pyogenes strain 1744264) was 0.5 µg/mL (≈ 0.345 µM), the MIC (S. pyogenes; S. pyogenes strain 1744265) was 8 µg/mL (≈ 5.52 µM) and the MIC (S. pyogenes; S. pyogenes strain 1744271) was 0.5 µg/mL (≈ 0.345 µM). The MIC (S. pyogenes; S. pyogenes strain 1744272) was 1 µg/mL (≈ 0.69 µM), the MIC (S. pyogenes; S. pyogenes strain 1744275) was 0.25 to 0.5 µg/mL (≈ 0.173 to 0.345 µM) and the MIC (S. pyogenes; S. pyogenes strain 1744277) was 4 µg/mL (≈ 2.76 µM). It also gave an MIC (S. pyogenes; S. pyogenes strain 1744285) of 0.5 µg/mL (≈ 0.345 µM), an MIC (S. pyogenes; S. pyogenes strain 2065754) of 0.5 µg/mL (≈ 0.345 µM) and an MIC (S. pyogenes; S. pyogenes strain 2065755) of 0.5 µg/mL (≈ 0.345 µM). It also gave an MIC (S. pyogenes; S. pyogenes strain 2065756) of 0.5 µg/mL (≈ 0.345 µM), an MIC (S. pyogenes; S. pyogenes strain 2065757) of 0.5 µg/mL (≈ 0.345 µM) and an MIC (S. pyogenes; S. pyogenes strain 2065759) of 0.5 µg/mL (≈ 0.345 µM). The MIC (S. pyogenes; S. pyogenes strain 2065760) was 0.5 µg/mL (≈ 0.345 µM), the MIC (S. pyogenes; S. pyogenes strain 2065761) was 0.5 µg/mL (≈ 0.345 µM) and the MIC (S. pyogenes; S. pyogenes strain 2065762) was 0.5 µg/mL (≈ 0.345 µM). For the same compound, the MIC (S. pyogenes; S. pyogenes strain 2065763) was 0.5 µg/mL (≈ 0.345 µM), the MIC (S. pyogenes; S. pyogenes strain 2065765) was 2 to 4 µg/mL (≈ 1.38 to 2.76 µM) and the MIC (S. pyogenes; S. pyogenes strain 20658748) was 0.25 to 0.5 µg/mL (≈ 0.173 to 0.345 µM). For the same compound, the MIC (S. pyogenes; S. pyogenes strain 20658749) was 0.5 µg/mL (≈ 0.345 µM) and the MIC (S. pyogenes; S. pyogenes strain 20658750) was 0.5 µg/mL (≈ 0.345 µM).

In the case of `COc1ccc([C@H]2Oc3c(OC)cc(CCCO)cc3[C@@H]2CO)cc1OC` [dimethylcedrusin], the “Wound healing properties / healing effects” value (the cells) is given as “little healing effects”.

For `Oc1cc(O)c2c(c1)O[C@H](c1cc(O)c(O)c(O)c1)[C@H](O)C2` [Epigallocatechin], the “Effect on cell proliferation” value (the cells) is listed as “slightly stimulating”.
